Key:
[1] = test system: cultured human mast cells (CHMC); assay: CHMC low cell density IgE activation: tryptase assay; assay type: cell-based; details: anti-IgE
Procedure, shortened: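 Supernatant tryptase activity, assayed with substrate for 30 min at room temperature, served as the degranulation measure. Mast cells (1000-1500 per well depending on donor) sat 1 hr at 37° C in MT before a 30 min anti-IgE challenge at 37° C.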

[2] = test system: cultured human mast cells (CHMC); assay: CHMC low cell density ionomycin activation: tryptase assay; assay type: cell-based
[3] = test system: bone marrow derived mast cells (BMMC); assay: BMMC high cell density IgE activation: hexosaminidase; assay type: cell-based, mouse; details: anti-IgE, second part of TABLE 1, read-out: BMMC anti-IgE hexos. IC50
Description: (§1) After sensitizing, cells are counted, pelleted (1000 rpm, 5-10 minutes), and resuspended at 1-3×10^6 cells/ml in MT buffer. Add 100 ul of cell suspension to each well and 100 ul of compound dilutions. The final vehicle concentration is 0.5% DMSO. Incubate at 37° C. (5% CO2) for 1 hour. After 1 hour of compound treatment, stimulate cells with 6× stimulus (60 ng/ml DNP-BSA). Mix wells with the cells and allow plates to incubate at 37° C. (5% CO2) for one hour. After 1 hour incubation, pellet cells (10 minutes, 1000 RPM) and collect 200 ul per well of the supernatant, being careful not to disturb pellet, and transfer to a clean tube or 96-well plate. Place the supernatant plate on ice. During the 4-5 hour step (see next) perform the hexosiminidase assay. Resuspend cell pellet in 240 ul WEI-conditioned media containing 0.5% DMSO and corresponding concentration of compound. Incubate BMMC cells for 4-5 hours at 37° C. (5% CO2). After incubation, pellet cells (1000 RPM, 10 minutes) and collect 225 ul per well and place in −80° C. until ready to perform ELISAS. ELISAS are performed on appropriately diluted samples (determined empirically for each donor cell population so that the sample measurement falls within the standard curve) following the supplier's instructions.
Hexosaminidase assay: In a solid black 96-well assay plate, add 50 uL hexosaminidase substrate (4-methylumbelliferyl-N-acetyl-(3-D-glucosaminide; 2 mM) to each well. Add 50 uL of BMMC cell supernatant (see above) to the hexoseaminidase substrate, place at 37° C. for 30 minutes and read the plate at 5, 10, 15, and 30 minutes on a spectrophotometer.

[4] = test system: bone marrow derived mast cells (BMMC); assay: BMMC high cell density IgE activation: histamine; assay type: cell-based, mouse; details: anti-IgE, second part of TABLE 1
Description: (§2) Inhibition of degranulation was measured at both low and high cell density by quantifying the release of the granule specific factors tryptase, histamine and hexosaminidase. Inhibition of release and/or synthesis of lipid mediators was assessed by measuring the release of leukotriene LTC4 and inhibition of release and/or synthesis of cytokines was monitored by quantifying TNF-α, IL-6 and IL-13. Tryptase and hexosaminidase were quantified using fluorogenic substrates as described in their respective examples. […] The protocols of the various assays are provided below.
as §1

[5] = test system: bone marrow derived mast cells (BMMC); assay: BMMC high cell density IgE activation: LTC4; assay type: cell-based, mouse; details: anti-IgE, second part of TABLE 1
Description: as §2, §1

[6] = test system: bone marrow derived mast cells (BMMC); assay: BMMC high cell density IgE activation: TNFalpha; assay type: cell-based, mouse; details: anti-IgE, second part of TABLE 1, read-out: BMMC anti-IgE TNF-alpha IC50
Description: as §2, §1

[7] = test system: bone marrow derived mast cells (BMMC); assay: BMMC high cell density IgE activation: IL-6; assay type: cell-based, mouse; details: anti-IgE, second part of TABLE 1
Description: as §2, §1

[8] = test system: IgE-induced degranulation of tissue mast cells; assay: Mouse model of passive cutaneous anaphylaxis (PCA); assay type: in vivo; details: for PCA response, positive controls (in words): mouse, in vivo; for % Inhibition (PCA): PO, 67% PEG/33% citrate buffer, pretreatment 15 min
Description: This model provides a direct measure of IgE-induced degranulation of tissue mast cells. In this model, IgE primed animals are exposed to an allergen challenge, and the change in permeability of dermal vasculature that results from histamine release from mast cells is measured by change in the amount of dye leakage into surrounding tissue. Inhibition of mediator release by compounds that modulate mast cell degranulation is easily measured by extracting the dye from the tissue.
In the PCA assay mice are passively sensitized by intradermal injection with anti-dinitrophenol (DNP) IgE antibodies (Day −1). At predetermined times animals are treated with the test agent (Day 0). The modulatory effect of the agent on cutaneous mast cell degranulation is measured following intravenous injection of DNP conjugated to human serum albumin (HSA-DNP), together with Evans blue dye. The resulting cross-linking of the IgE receptor and subsequent mast cell degranulation-induced increase in vascular permeability is determined by measuring the amount of dye extravasation into the tissue. Dye is extracted from the tissue by formamide, and the absorbance of this extract is read at 620 nm.

Structure (SMILES)	IC50 [1]	IC50 [2]	IC50 [5]	also measured
CN1CCC(=C2c3ccccc3C=Cc3ccccc32)CC1 [cyproheptadine, reference compound]	–	–	–	inhibition of the PCA response ([8]; 8 mg/kg, i.p., 30 minutes pretreatment time, n=23 experiments): 61%; PCA response, positive controls (in words) [8]: inhibit the PCA response
CN(C)CCOC(c1ccccc1)c1ccccc1 [diphenhydramine, reference compound]	–	–	–	PCA response, positive controls (in words) [8]: inhibit the PCA response
CCOC(=O)COc1ccc(Nc2ncc(F)c(Nc3ccc4c(c3)OCCO4)n2)cc1 [R925747, N2-(4-Ethoxycarbonylmethyleneoxyphenyl)-N4-(3,4-ethylenedioxyphenyl)-5-fluoro-2,4-pyrimidinediamine]	1020 nM	3100 nM	–	IC50 [3]: 3100 nM
O=C(NC(CO)CO)c1cc2cc(Nc3ncc(F)c(Nc4ccc5c(c4)OCCO5)n3)ccc2o1 [R926785, N2-[2-(N-1,3-Dihydroxy-2-propylamino)carbonylbenzofuran-5-yl]-N4-(3,4-ethylenedioxyphenyl)-5-fluoro-2,4-pyrimidinediamine]	–	> 10000 nM	1410 nM	IC50 [3]: 989 nM; IC50 [4]: 561 nM; IC50 [6]: 1310 nM; IC50 [7]: 513 nM
Fc1cnc(Nc2ccc3c(c2)OCCO3)nc1Nc1ccc2c(c1)OCCO2 [R926109, N2,N4-Bis(3,4-ethylenedioxyphenyl)-5-fluoro-2,4-pyrimidinediamine]	–	–	–	% Inhibition (PCA) ([8]; 50 mg/kg): 22%; % Inhibition (PCA) ([8]; 100 mg/kg): 32%; % Inhibition (PCA) ([8]; 200 mg/kg): 48%; FcεR-mediated vascular leakage with increasing doses (in words) ([8]; solution (67% PEG/33% citrate buffer) or aqueous suspension (1.5% Avicel)): dose-dependent inhibition
O=C(CNc1cccc(Nc2ncc(F)c(Nc3cccc(NCCO)c3)n2)c1)NCCNCc1ccccc1 [R950235, N2-[3-[N-(2-N-Benzylamino)ethylamino]carbonylmethyleneaminophenyl]-5-fluoro-N4-[3-(2-hydroxyethylamino)phenyl]-2,4-pyrimidinediamine]	4090 nM	> 10000 nM	–	–
Cc1ccc(-c2ccccc2)cc1Nc1ncc(C)c(Nc2cc(-c3ccccc3)ccc2C)n1 [R935001, N2,N4-Bis[(2-methyl-5-phenyl)phenyl]-5-methyl-2,4-pyrimidinediamine]	> 10000 nM	> 10000 nM	–	–
CCOc1ccc(Nc2ncc([N+](=O)[O-])c(Nc3ccc(OCC)cc3)n2)cc1 [R940090, N2,N4-Bis-(4-ethoxyphenyl)-5-nitro-2,4-pyrimidinediamine]	–	–	–	IC50 ([1]; Homo sapiens, Mast cell): > 10000 nM; IC50 ([2]; Homo sapiens, Mast cell): > 10000 nM
N#CCOc1ccc(Nc2nc(Nc3ccc(OCC(=O)O)cc3)ncc2F)cc1 [R945097, N2-(4-Carboxymethyleneoxyphenyl)-N4-(4-cyanomethyleneoxyphenyl)-5-fluoro-2,4-pyrimidinediamine]	10000 nM	> 10000 nM	–	–

Further lines, with some results ahead:

IC50 [1]	IC50 [2]	IC50 [5]	Structure (SMILES)	also measured
178 nM	> 10000 nM	401 nM	CNC(=O)CNc1cccc(Nc2ncc(F)c(Nc3ccc4c(c3)OCCO4)n2)c1 [R950191]	IC50 [3]: < 220 nM; IC50 [4]: > 2000 nM; IC50 [6]: < 220 nM; IC50 [7]: < 220 nM
96 nM	552 nM	373 nM	Oc1cccc(Nc2ncc(F)c(Nc3ccc(OCc4nc(-c5ccccc5)no4)cc3)n2)c1 [R935138, 5-Fluoro-N2-(3-hydroxyphenyl)-N4-[4-(3-phenyl-1,2,4-oxadiazol-5-yl)methyleneoxyphenyl]-2,4-pyrimidinediamine]	IC50 [3]: < 220 nM; IC50 [4]: < 220 nM; IC50 [6]: 409 nM; IC50 [7]: < 220 nM
–	> 10000 nM	590 nM	CC(C)c1cccc(Nc2nc(Nc3cccc(OCC(=O)NCC(O)CO)c3)ncc2F)c1 (centres unmarked) [R940290, N2-[3-(N-2,3-Dihydroxypropylamino)carbonylmethyleneoxyphenyl]-5-fluoro-N4-(3-isopropylphenyl)-2,4-pyrimidinediamine]	IC50 [4]: 545 nM; IC50 [7]: 100 nM
–	> 10000 nM	213 nM	Oc1cccc(Nc2nc(Nc3ccc4cn[nH]c4c3)ncc2F)c1 [R935191, 5-Fluoro-N4-(3-hydroxyphenyl)-N2-(indazolin-6-yl)-2,4-pyrimidinediamine]	IC50 [3]: 68 nM; IC50 [6]: 71 nM
–	> 10000 nM	625 nM	CC(C)(C)c1cccc(Nc2nc(Nc3cccc(OCC(=O)NCC(O)CO)c3)ncc2F)c1 (centres unmarked) [R940277, N4-(3-tert-Butylphenyl)-N2-[3-(N-2,3-dihydroxypropylamino)carbonylmethyleneoxyphenyl]-5-fluoro-2,4-pyrimidinediamine]	IC50 [3]: 279 nM; IC50 [4]: 315 nM; IC50 [6]: 262 nM; IC50 [7]: 181 nM
–	> 10000 nM	493 nM	Cn1ncc2cc(Nc3ncc(F)c(Nc4cccc(O)c4)n3)ccc21 [R935194, 5-Fluoro-N4-(3-hydroxyphenyl)-N2-(1-methy-indazoline-5-yl)-2,4-pyrimidinediamine]	IC50 [4]: 54 nM; IC50 [7]: 34 nM
291 nM	> 10000 nM	–	CC(C)c1cccc(Nc2nc(Nc3cccc(OCC(=O)NC[C@@H](O)CO)c3)ncc2F)c1 [R940307, (R)—N2-[3-(dihydroxypropylaminocarbonylmethyleneoxy)-phenyl]-5-fluoro-N4-(3-isopropylphenyl)-2,4-pyrimidinediamine]	–
756 nM	> 10000 nM	–	CN(CCO)C(=O)COc1cccc(Nc2ncc(F)c(Nc3ccc4c(c3)OCCO4)n2)c1 [R926766, N4-(3,4-Ethylenedioxyphenyl)-5-fluoro-N2-[3-[N-methyl-N-(2-hydroxyethyl)amino]carbonylmethyleneoxyphenyl]-2,4-pyrimidinediamine]	–
126 nM	8810 nM	–	CC(C)(C)c1cccc(Nc2nc(Nc3cccc(OCC(=O)NCCO)c3)ncc2F)c1 [R940295, N4-(3-tert-Buthylpheny)-5-fluoro-N2-[3-(N-2-hydroxyethylamino)carbonylmethyleneoxyphenyl]-2,4-pyrimidinediamine]	–
245 nM	> 10000 nM	–	O=C(CNc1cccc(Nc2ncc(F)c(Nc3ccc4c(c3)OCCO4)n2)c1)NCCN1CCOCC1 [R950200, N4-(3,4-Ethylenedioxyphenyl)-5-fluoro-N2-[3-(N-2-morpholinoethyleneamino)carbonylmethyleneaminophenyl]-2,4-pyrimidinediamine]	–
1000 nM	> 10000 nM	–	Cc1nc(COc2cccc(Nc3ncc(F)c(Nc4ccc(OC(C)C)cc4)n3)c2)no1 [R945129, 5-Fluoro-N4-(4-isopropoxyphenyl)-N2-[3-(5-methyl-1,2,4-oxadiazol-3-yl)methyleneoxyphenyl]-2,4-pyrimidinediamine]	–
345 nM	> 10000 nM	–	CNC(=O)COc1cccc(Nc2ncc(F)c(Nc3ccc(OCCC(=O)OC)cc3)n2)c1 [R950346, N4-(4-Methoxycarbonylethyleneoxyphenyl)-5-fluoro-N2-[3-(N-methylamino)carbonylmethyleneoxyphenyl]-2,4-pyrimidinediamine]	–

— patent publication US9499493B2, “2,4-pyrimidinediamine compounds and their uses” (Rigel Pharmaceuticals, Inc., priority 2002, dated 2016)
